Columns and labels:
Type in all cases: cell-based
[1] = target: human TLR7 (Homo sapiens (Human), UniProt Q9NYK1); experiment: TLR7 inhibition reporter assay (HEK-Blue, SEAP); details: HEK-Blue cells overexpressing human TLR7, gardiquimod 7.5 μM stimulation
Method in brief: (§1)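 After 30 min room-temperature pre-incubation with compound (0.05 nM–50 μM), reporter HEK-Blue lines were activated by ODN2006 5 nM for TLR9, R848 15.9 μM for TLR8 or gardiquimod 7.5 μM for TLR7. SEAP detected after 22 h, 37 °C; inhibition scaled between agonist+DMSO wells and known-inhibitor control.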

[2] = target: human TLR9 (Homo sapiens (Human), UniProt Q9NR96); experiment: TLR9 inhibition reporter assay (HEK-Blue, SEAP); details: HEK-Blue cells overexpressing human TLR9, ODN2006 5 nM stimulation
Sequence of human TLR9 (Q9NR96 26-1032): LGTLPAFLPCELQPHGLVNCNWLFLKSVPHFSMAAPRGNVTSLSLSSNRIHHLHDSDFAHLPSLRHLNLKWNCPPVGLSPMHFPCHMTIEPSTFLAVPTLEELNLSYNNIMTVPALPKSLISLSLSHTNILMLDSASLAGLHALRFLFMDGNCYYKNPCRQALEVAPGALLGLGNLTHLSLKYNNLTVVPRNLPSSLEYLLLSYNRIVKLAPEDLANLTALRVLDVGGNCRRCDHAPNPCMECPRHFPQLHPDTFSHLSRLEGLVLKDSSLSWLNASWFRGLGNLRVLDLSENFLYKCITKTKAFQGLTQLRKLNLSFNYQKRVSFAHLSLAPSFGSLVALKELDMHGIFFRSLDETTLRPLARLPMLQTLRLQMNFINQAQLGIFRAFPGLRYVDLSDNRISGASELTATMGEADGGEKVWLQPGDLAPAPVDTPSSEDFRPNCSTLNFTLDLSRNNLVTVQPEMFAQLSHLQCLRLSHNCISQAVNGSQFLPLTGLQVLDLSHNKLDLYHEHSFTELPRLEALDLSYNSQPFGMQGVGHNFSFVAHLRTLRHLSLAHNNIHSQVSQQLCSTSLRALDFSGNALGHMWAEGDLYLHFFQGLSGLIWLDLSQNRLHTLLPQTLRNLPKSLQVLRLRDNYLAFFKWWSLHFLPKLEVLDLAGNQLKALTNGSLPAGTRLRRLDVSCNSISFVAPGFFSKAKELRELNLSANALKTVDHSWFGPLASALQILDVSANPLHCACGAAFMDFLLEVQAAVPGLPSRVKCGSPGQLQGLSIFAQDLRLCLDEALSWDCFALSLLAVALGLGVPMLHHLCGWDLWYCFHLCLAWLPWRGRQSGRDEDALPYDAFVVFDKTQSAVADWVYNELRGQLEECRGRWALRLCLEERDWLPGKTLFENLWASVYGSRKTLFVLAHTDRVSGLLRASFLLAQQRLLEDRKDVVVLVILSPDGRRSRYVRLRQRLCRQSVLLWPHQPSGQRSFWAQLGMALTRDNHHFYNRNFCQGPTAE
Method in brief: as §1

[3] = target: human TLR8 (Homo sapiens (Human), UniProt Q9NR97); experiment: TLR8 inhibition reporter assay (HEK-Blue, SEAP); details: HEK-Blue cells overexpressing human TLR8, R848 15.9 μM stimulation
Sequence of human TLR8 (Q9NR97 27-1041): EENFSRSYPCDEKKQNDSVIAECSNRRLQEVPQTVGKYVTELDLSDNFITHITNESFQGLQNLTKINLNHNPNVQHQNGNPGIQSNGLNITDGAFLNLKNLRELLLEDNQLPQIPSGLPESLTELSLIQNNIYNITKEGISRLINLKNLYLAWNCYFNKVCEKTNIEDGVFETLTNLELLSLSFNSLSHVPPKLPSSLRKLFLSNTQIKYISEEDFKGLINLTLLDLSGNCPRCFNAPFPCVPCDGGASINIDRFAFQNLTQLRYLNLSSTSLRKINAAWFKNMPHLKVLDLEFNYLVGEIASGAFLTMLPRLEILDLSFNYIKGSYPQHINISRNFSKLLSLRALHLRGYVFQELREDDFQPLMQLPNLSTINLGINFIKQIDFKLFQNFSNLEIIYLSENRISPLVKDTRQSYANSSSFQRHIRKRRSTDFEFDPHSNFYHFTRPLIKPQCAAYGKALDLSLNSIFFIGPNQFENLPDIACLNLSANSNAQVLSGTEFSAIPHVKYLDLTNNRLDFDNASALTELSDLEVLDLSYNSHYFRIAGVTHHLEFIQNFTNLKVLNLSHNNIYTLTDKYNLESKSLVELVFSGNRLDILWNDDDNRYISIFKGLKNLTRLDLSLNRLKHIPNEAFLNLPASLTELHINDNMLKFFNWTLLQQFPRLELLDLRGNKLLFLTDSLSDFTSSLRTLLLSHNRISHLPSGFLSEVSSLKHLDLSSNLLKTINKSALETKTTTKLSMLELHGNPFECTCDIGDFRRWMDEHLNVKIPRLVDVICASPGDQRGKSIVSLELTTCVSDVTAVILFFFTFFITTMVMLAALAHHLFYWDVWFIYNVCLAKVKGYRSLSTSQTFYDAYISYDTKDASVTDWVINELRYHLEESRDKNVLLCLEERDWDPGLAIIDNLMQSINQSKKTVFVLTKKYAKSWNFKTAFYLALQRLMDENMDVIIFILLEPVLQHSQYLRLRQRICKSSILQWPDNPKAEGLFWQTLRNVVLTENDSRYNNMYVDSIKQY
Method in brief: as §1

Sequence of human TLR7 (Q9NYK1 27-1049): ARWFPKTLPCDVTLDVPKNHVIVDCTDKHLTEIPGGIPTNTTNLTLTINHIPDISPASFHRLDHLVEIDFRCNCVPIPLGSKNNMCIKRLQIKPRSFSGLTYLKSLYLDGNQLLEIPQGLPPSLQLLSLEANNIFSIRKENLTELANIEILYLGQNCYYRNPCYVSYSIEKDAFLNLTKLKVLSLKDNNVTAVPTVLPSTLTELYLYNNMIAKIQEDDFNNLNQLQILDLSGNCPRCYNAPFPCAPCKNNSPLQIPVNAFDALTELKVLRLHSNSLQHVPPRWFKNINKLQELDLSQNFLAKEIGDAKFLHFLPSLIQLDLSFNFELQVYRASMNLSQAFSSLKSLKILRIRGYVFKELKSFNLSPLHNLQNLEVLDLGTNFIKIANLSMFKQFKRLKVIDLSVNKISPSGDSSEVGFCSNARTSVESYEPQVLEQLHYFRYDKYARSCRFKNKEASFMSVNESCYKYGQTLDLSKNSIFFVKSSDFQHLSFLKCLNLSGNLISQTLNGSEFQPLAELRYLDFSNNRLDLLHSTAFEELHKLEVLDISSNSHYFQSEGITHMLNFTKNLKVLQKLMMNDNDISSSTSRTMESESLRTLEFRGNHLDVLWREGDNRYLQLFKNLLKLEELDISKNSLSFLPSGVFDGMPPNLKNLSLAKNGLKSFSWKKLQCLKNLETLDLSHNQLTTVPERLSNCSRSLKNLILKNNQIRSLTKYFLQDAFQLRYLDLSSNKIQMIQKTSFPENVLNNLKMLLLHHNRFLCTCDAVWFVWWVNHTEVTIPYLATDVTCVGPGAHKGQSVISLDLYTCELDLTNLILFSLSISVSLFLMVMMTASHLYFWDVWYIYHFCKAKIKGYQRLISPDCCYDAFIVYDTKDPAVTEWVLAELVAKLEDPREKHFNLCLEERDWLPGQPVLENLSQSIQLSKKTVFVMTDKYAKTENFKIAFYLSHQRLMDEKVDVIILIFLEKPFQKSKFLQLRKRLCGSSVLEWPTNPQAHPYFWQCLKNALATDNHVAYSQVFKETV

CNCCN1CCC(c2nnc(-c3ccc4[nH]c(-c5ccc(OC)c(OC)c5)c(CC(F)(F)F)c4c3)o2)CC1 [Example 67, 2-(4-(5-(2-(3,4-dimethoxyphenyl)-3-(2,2,2-trifluoroethyl)-1H-indol-5-yl)-1,3,4-oxadiazol-2-yl)piperidin-1-yl)-N-methylethan-1-amine]
IC50 [1]: 244 nM | IC50 [2]: 316 nM | IC50 [3]: 57 nM

COc1ccc(-c2[nH]c3ccc(-c4ccc(C5=CCN(C)CC5)cc4)cc3c2C)cc1OC [Example 376, 2-(3,4-dimethoxyphenyl)-3-methyl-5-(4-(1-methyl-1,2,3,6-tetrahydropyridin-4-yl)phenyl)-1H-indole]
IC50 [1]: 2880 nM | IC50 [2]: 2410 nM | IC50 [3]: 487 nM

Cc1cc(-c2[nH]c3ccc(-c4cn5cc(C)nc5cc4C)cc3c2C(C)C)cc(C)n1 [Example 347, 6-(2-(2,6-dimethylpyridin-4-yl)-3-isopropyl-1H-indol-5-yl)-2,7-dimethylimidazo[1,2-a]pyridine]
IC50 [1]: 6.6 nM | IC50 [2]: 592 nM | IC50 [3]: 6.9 nM

COc1ccc(-c2[nH]c3ccc(-c4nnc(C(=O)NCCNC(C)=O)o4)cc3c2C(C)C)cc1OC [Example 100, N-(2-acetamidoethyl)-5-(2-(3,4-dimethoxyphenyl)-3-isopropyl-1H-indol-5-yl)-1,3,4-oxadiazole-2-carboxamide]
IC50 [1]: 844 nM | IC50 [2]: > 50000 nM | IC50 [3]: 31 nM

COc1ccc(-c2[nH]c3ccc(-c4nnc(C(=O)NCCN(C)C)o4)cc3c2C(C)C)cc1OC [Example 90, 5-(2-(3,4-dimethoxyphenyl)-3-isopropyl-1H-indol-5-yl)-N-(2-(dimethylamino)ethyl)-1,3,4-oxadiazole-2-carboxamide]
IC50 [1]: 30 nM | IC50 [2]: 802 nM | IC50 [3]: 4 nM

COc1ccc(-c2[nH]c3ccc(-c4cccc(C(=O)NCC#N)c4)cc3c2CC(F)(F)F)cc1OC [Example 27, N-(cyanomethyl)-3-(2-(3,4-dimethoxyphenyl)-3-(2,2,2-trifluoroethyl)-1H-indol-5-yl)benzamide]
IC50 [1]: 744 nM | IC50 [2]: 41100 nM | IC50 [3]: 82 nM

Cc1cc(-c2[nH]c3ccc(-c4nnc(NC(=O)CN(C)C)o4)cc3c2C(C)C)ccn1 [Example 190, 2-(dimethylamino)-N-(5-(3-isopropyl-2-(2-methylpyridin-4-yl)-1H-indol-5-yl)-1,3,4-oxadiazol-2-yl)acetamide]
IC50 [1]: 258 nM | IC50 [2]: 48500 nM | IC50 [3]: 9.1 nM

Cc1cc(-c2[nH]c3ccc(-c4nc(C(=O)NCCCN(C)C)co4)cc3c2C(C)C)cc(C)n1 [Example 280, N-(3-(dimethylamino)propyl)-2-(2-(2,6-dimethylpyridin-4-yl)-3-isopropyl-1H-indol-5-yl)oxazole-4-carboxamide]
IC50 [1]: 3.8 nM | IC50 [2]: 156 nM | IC50 [3]: 1.8 nM

COc1ccc(-c2[nH]c3ccc(-c4ccc(-c5cccnc5)cc4)cc3c2C(C)C)cc1OC [Example 406, 2-(3,4-dimethoxyphenyl)-3-isopropyl-5-(4-(pyridin-3-yl)phenyl)-1H-indole]
IC50 [1]: 2610 nM | IC50 [2]: > 50000 nM | IC50 [3]: 2220 nM

CNCC(=O)N1CCC(c2nnc(-c3ccc4[nH]c(-c5ccc(OC)c(OC)c5)c(C(C)C)c4c3)o2)CC1 [Example 18, 1-(4-(5-(2-(3,4-dimethoxyphenyl)-3-isopropyl-1H-indol-5-yl)-1,3,4-oxadiazol-2-yl)piperidin-1-yl)-2-(methylamino)ethan-1-one]
IC50 [1]: 42 nM | IC50 [2]: 625 nM | IC50 [3]: 9.5 nM

Cc1cc(-c2[nH]c3ccc(-c4ccc(N(C)C)nc4)cc3c2C(C)C)ccn1 [Example 246, 5-(3-isopropyl-2-(2-methylpyridin-4-yl)-1H-indol-5-yl)-N,N-dimethylpyridin-2-amine]
IC50 [1]: 56 nM | IC50 [2]: > 50000 nM | IC50 [3]: 21 nM

CC(=O)N1CCc2nc(-c3ccc4[nH]c(-c5cc(C)nc(C)c5)c(C(C)C)c4c3)sc2C1 [Example 362, 1-(2-(2-(2,6-dimethylpyridin-4-yl)-3-isopropyl-1H-indol-5-yl)-6,7-dihydrothiazolo[5,4-c]pyridin-5(4H)-yl)ethan-1-one]
IC50 [1]: 6.4 nM | IC50 [2]: > 50000 nM | IC50 [3]: 9 nM

COc1ccc(-c2[nH]c3ccc(-c4nnc(CC(F)(F)F)o4)cc3c2C(C)C)cc1OC [Example 64, 2-(2-(3,4-dimethoxyphenyl)-3-isopropyl-1H-indol-5-yl)-5-(2,2,2-trifluoroethyl)-1,3,4-oxadiazole]
IC50 [1]: 1040 nM | IC50 [2]: > 50000 nM | IC50 [3]: 340 nM

COc1ccc(-c2[nH]c3ccc(-c4cccc(C(=O)N[C@H]5CC[C@H](N)CC5)c4)cc3c2C(C)C)cc1OC [Example 6]
IC50 [1]: 121 nM | IC50 [2]: 2780 nM | IC50 [3]: 42 nM

COc1ccc(-c2[nH]c3ccc(-c4nnc(C(=O)NCCCn5ccnc5)o4)cc3c2C(C)C)cc1OC [Example 101, N-(3-(1H-imidazol-1-yl)propyl)-5-(2-(3,4-dimethoxyphenyl)-3-isopropyl-1H-indol-5-yl)-1,3,4-oxadiazole-2-carboxamide]
IC50 [1]: 55 nM | IC50 [2]: 3290 nM | IC50 [3]: 14 nM

Cc1cc(-c2[nH]c3ccc(-c4ccc(N5CCN(C)CC5)nc4)cc3c2C(C)C)ccn1 [Example 253, 3-isopropyl-5-(6-(4-methylpiperazin-1-yl)pyridin-3-yl)-2-(2-methylpyridin-4-yl)-1H-indole]
IC50 [1]: 45 nM | IC50 [2]: 304 nM | IC50 [3]: 22 nM

Cc1cc(-c2[nH]c3ccc(-c4nnc(Cc5nnn[nH]5)o4)cc3c2C(C)C)ccn1 [Example 76, 2-((1H-tetrazol-5-yl)methyl)-5-(3-isopropyl-2-(2-methylpyridin-4-yl)-1H-indol-5-yl)-1,3,4-oxadiazole]
IC50 [1]: 1900 nM | IC50 [2]: > 50000 nM | IC50 [3]: 481 nM

Cc1cc(-c2[nH]c3ccc(-c4cn5cc(C)nc5cc4F)cc3c2C(C)C)cc(C)n1 [Example 348, 6-(2-(2,6-dimethylpyridin-4-yl)-3-isopropyl-1H-indol-5-yl)-7-fluoro-2-methylimidazo[1,2-a]pyridine]
IC50 [1]: 3.7 nM | IC50 [2]: 3640 nM | IC50 [3]: 20 nM

CC(C)c1c(-c2ccc3ncnn3c2)[nH]c2ccc(-c3nnc([C@@H]4CCCNC4)o3)cc12 [Example 227, (R)-2-(2-([1,2,4]triazolo[1,5-a]pyridin-6-yl)-3-isopropyl-1H-indol-5-yl)-5-(piperidin-3-yl)-1,3,4-oxadiazole]
IC50 [1]: 61 nM | IC50 [2]: 892 nM | IC50 [3]: 9.4 nM

Cc1cc(-c2[nH]c3ccc(-c4nnc(C5CCCN(C(=O)CN(C)C)C5)[nH]4)cc3c2C(C)C)ccn1 (stereo not drawn) [Example 176, 2-(dimethylamino)-1-(3-(5-(3-isopropyl-2-(2-methylpyridin-4-yl)-1H-indol-5-yl)-4H-1,2,4-triazol-3-yl)piperidin-1-yl)ethan-1-one]
IC50 [1]: 51 nM | IC50 [2]: 1920 nM | IC50 [3]: 6.3 nM

COc1ccc(-c2[nH]c3ccc(-c4nnc(CNCCNC(C)=O)o4)cc3c2C(C)C)cc1OC [Example 108, N-(2-(((5-(2-(3,4-dimethoxyphenyl)-3-isopropyl-1H-indol-5-yl)-1,3,4-oxadiazol-2-yl)methyl)amino)ethyl)acetamide]
IC50 [1]: 1980 nM | IC50 [2]: > 50000 nM | IC50 [3]: 220 nM

Cc1cc(-c2[nH]c3ccc(-c4ccc(N5CCN(C)CC5)nc4)cc3c2C(C)C)cc(C)n1 [Example 301, 2-(2,6-dimethylpyridin-4-yl)-3-isopropyl-5-(6-(4-methylpiperazin-1-yl)pyridin-3-yl)-1H-indole]
IC50 [1]: 5.2 nM | IC50 [2]: 432 nM | IC50 [3]: 3.6 nM

Cc1cc(-c2[nH]c3ccc(-c4nc(C(=O)NCCCN)co4)cc3c2C(C)C)cc(C)n1 [Example 278, N-(3-aminopropyl)-2-(2-(2,6-dimethylpyridin-4-yl)-3-isopropyl-1H-indol-5-yl)oxazole-4-carboxamide]
IC50 [1]: 33 nM | IC50 [2]: 488 nM | IC50 [3]: 37 nM

CC(C)c1c(-c2ccnc3[nH]ncc23)[nH]c2ccc(-c3nnc(CN4CC[C@@H](N(C)C)C4)o3)cc12 [Example 157, (R)-1-((5-(3-isopropyl-2-(1H-pyrazolo[3,4-b]pyridin-4-yl)-1H-indol-5-yl)-1,3,4-oxadiazol-2-yl)methyl)-N,N-dimethylpyrrolidin-3-amine]
IC50 [1]: 314 nM | IC50 [2]: 4480 nM | IC50 [3]: 18 nM

CNC(=O)CN1CCc2cc(-c3ccc4[nH]c(-c5ccnc(C)c5)c(C(C)C)c4c3)sc2C1 [Example 315, 2-(2-(3-isopropyl-2-(2-methylpyridin-4-yl)-1H-indol-5-yl)-4,7-dihydrothieno[2,3-c]pyridin-6(5H)-yl)-N-methylacetamide]
IC50 [1]: 93 nM | IC50 [2]: 47400 nM | IC50 [3]: 17 nM

CC(C)c1c(-c2ccnc(N)c2)[nH]c2ccc(-c3nnc(C(=O)N(C)C)o3)cc12 [Example 166, 5-(2-(2-aminopyridin-4-yl)-3-isopropyl-H-indol-5-yl)-N,N-dimethyl-1,3,4-oxadiazole-2-carboxamide]
IC50 [1]: 284 nM | IC50 [2]: 29500 nM | IC50 [3]: 47 nM

Cc1cc(-c2[nH]c3ccc(-c4nnc(CCN(C)C)o4)cc3c2C(C)C)cc(C)n1 [Example 270, 2-(5-(2-(2,6-dimethylpyridin-4-yl)-3-isopropyl-1H-indol-5-yl)-1,3,4-oxadiazol-2-yl)-N,N-dimethylethan-1-amine]
IC50 [1]: 10 nM | IC50 [2]: 298 nM | IC50 [3]: 1 nM

COc1ccc(-c2[nH]c3ccc(-c4nnc(C(=O)N5CC[C@H](N(C)C)C5)o4)cc3c2C(C)C)cc1OC [Example 98, (S)-(5-(2-(3,4-dimethoxyphenyl)-3-isopropyl-1H-indol-5-yl)-1,3,4-oxadiazol-2-yl)(3-(dimethylamino)pyrrolidin-1-yl)methanone]
IC50 [1]: 68 nM | IC50 [2]: 2660 nM | IC50 [3]: 17 nM

From patent publication US11420958B2, “Aryl and heteroaryl substituted indole compounds” (BRISTOL-MYERS SQUIBB COMPANY, priority 2017, dated 2022)
